Patent US20220380319A1 (Bial - R&D Investments, S.A., priority 2019, published 2022)
Values after ≈ are worked out from the molar mass of the structure shown.

Tests used:
[1] = biological target: T1, acid ceramidase (Homo sapiens, UniProt Q13510); experiment: Acid ceramidase inhibition, biochemical fluorescent assay with cell lysates overexpressing acid ceramidase, substrate Rbm14-12; settings: substrate Rbm14-12 6.3 μM, pH 4.5
T1 construct: Cell lysates overexpressing acid ceramidase were used as the enzyme source; expressed in transfected cells
T1 sequence (Q13510 22-395): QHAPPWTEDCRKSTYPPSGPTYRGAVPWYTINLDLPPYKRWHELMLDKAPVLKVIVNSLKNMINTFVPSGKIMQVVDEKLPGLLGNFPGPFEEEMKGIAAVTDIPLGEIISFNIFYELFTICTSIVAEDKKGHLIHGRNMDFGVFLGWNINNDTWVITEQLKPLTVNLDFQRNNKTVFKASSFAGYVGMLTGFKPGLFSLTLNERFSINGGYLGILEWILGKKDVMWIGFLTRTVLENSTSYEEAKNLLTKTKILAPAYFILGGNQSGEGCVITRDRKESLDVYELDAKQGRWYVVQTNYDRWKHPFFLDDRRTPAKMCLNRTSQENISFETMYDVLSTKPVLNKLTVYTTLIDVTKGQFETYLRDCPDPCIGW
How it was run: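 IC50 derived by four-parameter fitting of fluorescence (ex360 nm, em446 nm) produced after 1 hr in methanol/NaIO4/glycine stop buffer, pH 10.6. Reaction: 6.3 μM Rbm14-12, 1 hr RT, following 1 hr RT compound preincubation with 10 μg overexpressing-cell lysate protein in pH 4.5 NaAC/NaCl buffer.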

[2] = Compound solubility in water

| SMILES | IC50 [1] [nM] | solubility [2] [µg/mL] |
| --- | --- | --- |
| CN1CCN(c2cccc3c2ncn3C(=O)NCCCc2ccccc2)CC1CF (stereo not shown) [Example 277, 4-(3-(Fluoromethyl)-4-methylpiperazin-1-yl)-N-(3-phenylpropyl)-1H-benzo[d]imidazole-1-carboxamide] | < 200 | 18 (≈ 44 µM) |
| N#CCCN1CCN(c2cccc3c2ncn3C(=O)NCCCc2ccccc2)CC1 [Example 278, 4-(4-(2-Cyanoethyl)piperazin-1-yl)-N-(3-phenylpropyl)-1H-benzo[d]imidazole-1-carboxamide] | < 200 | 18 (≈ 43.2 µM) |
| O=C(NCCCc1ccccc1)n1cnc2c(N3CCC3)cccc21 [Example 279, 4-(Azetidin-1-yl)-N-(3-phenylpropyl)-1H-benzo[d]-imidazole-1-carboxamide] | < 200 | 1 (≈ 2.99 µM) |
| CC(C)C#CCNC(=O)n1cnc2c(N3CCN(C)CC3)cccc21 [Example 280, N-(4-Methylpent-2-ynyl)-4-(4-methylpiperazin-1-yl)-1H-benzo[d]imidazole-1-carboxamide] | < 200 | 16 (≈ 47.1 µM) |
| CC#CCNC(=O)n1cnc2c(N3CCN(C)CC3)cccc21 [Example 281, N-(But-2-yn-1-yl)-4-(4-methylpiperazin-1-yl)-1H-benzo[d]imidazole-1-carboxamide] | 200 to 1000 | 32 (≈ 103 µM) |
| CN1CCN(c2cccc3c2ncn3C(=O)NCC#Cc2ccccc2)CC1 [Example 282, 4(4-Methylpiperazin-1-yl)-N-(3-phenylprop-2-yn-1-yl)-1H-benzo[d]imidazole-1-carboxamide] | < 200 | 21 (≈ 56.2 µM) |
| CN1CCN(c2cccc3c2ncn3C(=O)NCC#CC2CC2)CC1 [Example 283, N-(3-Cyclopropylprop-2-ynyl)-4-(4-methylpiperazin-1-yl)-1H-benzo[d]imidazole-1-carboxamide] | < 200 | 28 (≈ 83 µM) |
| CN1CCN(c2cccc3c2ncn3C(=O)NCC#CCC2CC2)CC1 [Example 284] | < 200 | 30 (≈ 85.4 µM) |
| CN1CCN(c2cccc3c2ncn3C(=O)NCC#CCC2(C(F)(F)F)CC2)CC1 [Example 285, 4-(4-Methylpiperazin-1-yl)-N-(4-(1-(trifluoromethyl)cyclopropyl)but-2-yn-1-yl)-1H-benzo[d]imidazole-1-carboxamide] | < 200 | 22 (≈ 52.4 µM) |
| O=C(NCCCc1ccccc1)n1cnc2c(N3CCN(C4COC4)CC3)cccc21 [Example 286, 4-(4-(Oxetan-3-yl)piperazin-1-yl)-N-(3-phenylpropyl)-1H-benzo[d]imidazole-1-carboxamide] | < 200 | 24 (≈ 57.2 µM) |
| CN1CC(N2CCN(c3cccc4c3ncn4C(=O)NCCC3CCC(F)(F)C3)CC2)C1 (stereo not shown) [Example 287, N-(2-(3,3-Difluorocyclopentyl)ethyl)-4-(4-(1-methylazetidin-3-yl)piperazin-1-yl)-1H-benzo[d]imidazole-1-carboxamide] | 200 to 1000 | 36 (≈ 80.6 µM) |
| N#CCCN1CCN(c2cccc3c2ncn3C(=O)NCCC2CCC(F)(F)C2)CC1 (stereo not shown) [Example 288, 4-(4-(2-Cyanoethyl)piperazin-1-yl)-N-(2-(3,3-difluorocyclopentyl)ethyl)-1H-benzo[d]imidazole-1-carboxamide] | 200 to 1000 | 26 (≈ 60.4 µM) |
| CN1C2CCC1CN(c1cccc3c1ncn3C(=O)NCCC1CCC(F)(F)C1)C2 (stereo not shown) [Example 289, N-(2-(3,3-Difluorocyclopentyl)ethyl)-4-(8-methyl-3,8-diazabicyclo[3.2.1]octan-3-yl)-1H-benzo[d]imidazole-1-carboxamide] | 200 to 1000 | 39 (≈ 93.4 µM) |
| O=C(NCCC1CCC(F)(F)C1)n1cnc2c(N3CCN4CCCC4C3)cccc21 (stereo not shown) [Example 290, N-(2-(3,3-Difluorocyclopentyl)ethyl)-4-(hexahydropyrrolo[1,2-a]pyrazin-2(1H)-yl)-1H-benzo[d]imidazole-1-carboxamide] | 200 to 1000 | 28 (≈ 67.1 µM) |
| CCN1CCN(c2cccc3c2ncn3C(=O)NCCC2CCC(F)(F)C2)CC1 (stereo not shown) [Example 291, N-(2-(3,3-Difluorocyclopentyl)ethyl)-4-(4-ethylpiperazin-1-yl)-1H-benzo[d]imidazole-1-carboxamide] | 200 to 1000 | 20 (≈ 49.3 µM) |
| CN1CC2CCC1CN2c1cccc2c1ncn2C(=O)NCCC1CCC(F)(F)C1 (stereo not shown) [Example 292, N-(2-(3,3-Difluorocyclopentyl)ethyl)-4-(5-methyl-2,5-diazabicyclo[2.2.2]octan-2-yl)-1H-benzo[d]imidazole-1-carboxamide] | 200 to 1000 | 36 (≈ 86.2 µM) |

| SMILES | IC50 [1] [nM] | solubility [2] [µg/mL] |
| --- | --- | --- |
| CN1CC2CC1CN2c1cccc2c1ncn2C(=O)NCCC1CCC(F)(F)C1 (stereo not shown) [Example 293, N-(2-(3,3-difluorocyclopentyl)ethyl)-4-(5-methyl-2,5-diazabicyclo[2.2.1]heptan-2-yl)-1H-benzo[d]imidazole-1-carboxamide] | 200 to 1000 | 39 (≈ 96.7 µM) |
| CN1CC2CC1CN2c1cccc2c1ncn2C(=O)NCCOc1ccccc1 (stereo not shown) [Example 295, 4-(5-Methyl-2,5-diazabicyclo[2.2.1]heptan-2-yl)-N-(2-phenoxyethyl)-1H-benzo[d]imidazole-1-carboxamide] | < 200 | 33 (≈ 84.3 µM) |
| CN1CC(N2CCN(c3cccc4c3ncn4C(=O)NCCOc3ccccc3)CC2)C1 [Example 296, 4-(4-(1-Methylazetidin-3-yl)piperazin-1-yl)-N-(2-phenoxyethyl)-1H-benzo[d]imidazole-1-carboxamide] | < 200 | 36 (≈ 82.8 µM) |
| CC(C)C#CCNC(=O)n1cnc2c(N3CC(N4CCN(C)CC4)C3)cccc21 [Example 298, N-(4-Methylpent-2-ynyl)-4-(3-(4-methyl-piperazin-1-yl)azetidin-1-yl)-1H-benzo[d]imidazole-1-carboxamide] | < 200 | 27 (≈ 68.4 µM) |
| CC(C)C#CCNC(=O)n1cnc2c(N3CCN(C4CN(C)C4)CC3)cccc21 [Example 299, 4-(4-(1-Methylazetidin-3-yl)piperazin-1-yl)-N-(4-methylpent-2-yn-1-yl)-1H-benzo[d]imidazole-1-carboxamide] | < 200 | 30 (≈ 76 µM) |
| CNC1CCN(c2cccc3c2ncn3C(=O)NCC#CC(C)C)C1 (stereo not shown) [Example 300, 4-(3-(Methylamino)pyrrolidin-1-yl)-N-(4-methylpent-2-ynyl)-1H-benzo[d]imidazole-1-carboxamide] | < 200 | 29 (≈ 85.4 µM) |
| CC(C)C#CCNC(=O)n1cnc2c(N3CC4CC3CN4C)cccc21 (stereo not shown) [Example 301, 4-(5-Methyl-2,5-diazabicyclo[2.2.1]heptan-2-yl)-N-(4-methylpent-2-ynyl)-1H-benzo[d]imidazole-1-carboxamide] | 200 to 1000 | 34 (≈ 96.7 µM) |
| CC(C)C#CCNC(=O)n1cnc2c(N3CCN4CCCC4C3)cccc21 (stereo not shown) [Example 302, 4-(Hexahydropyrrolo[1,2-a]pyrazin-2(1H)-yl)-N-(4-methylpent-2-yn-1-yl)-1H-benzo[d]imidazole-1-carboxamide] | < 200 | 22 (≈ 60.2 µM) |
| CC(C)C#CCCNC(=O)n1cnc2c(N3CCN(C)CC3)cccc21 [Example 303, N-(5-Methylhex-3-yn-1-yl)-4-(4-methylpiperazin-1-yl)-1H-benzo[d]imidazole-1-carboxamide] | 200 to 1000 | 28 (≈ 79.2 µM) |
| CC(C)C#CCNC(=O)n1cnc2c(N3CC4CCC3CN4C)cccc21 (stereo not shown) [Example 304, 4-(5-Methyl-2,5-diazabicyclo[2.2.2]octan-2-yl)-N-(4-methylpent-2-ynyl)-1H-benzo[d]imidazole-1-carboxamide] | 200 to 1000 | 27 (≈ 73.9 µM) |
| CCC#CCNC(=O)n1cnc2c(N3CCN(C)CC3)cccc21 [Example 305, 4-(4-Methylpiperazin-1-yl)-N-(pent-2-yn-1-yl)-1H-benzo[d]imidazole-1-carboxamide] | 200 to 1000 | 27 (≈ 83 µM) |
| CC(C)C#CCNC(=O)n1cnc2c(N3CCN(C)C(CC#N)C3)cccc21 (stereo not shown) [Example 306, 4-(3-(Cyanomethyl)-4-methylpiperazin-1-yl)-N-(4-methylpent-2-ynyl)-1H-benzo[d]imidazole-1-carboxamide] | < 200 | 23 (≈ 60.8 µM) |
| CC(C)C#CCNC(=O)n1cnc2c(N3CCN(C4COC4)CC3)cccc21 [Example 307, N-(4-Methylpent-2-yn-1-yl)-4-(4-(oxetan-3-yl)-piperazin-1-yl)-1H-benzo[d]imidazole-1-carboxamide] | < 200 | 20 (≈ 52.4 µM) |
| CC(C)C#CCNC(=O)n1cnc2c(N3CCN(CCF)CC3)cccc21 [Example 309, 4-(4-(2-Fluoroethyl)piperazin-1-yl)-N-(4-methylpent-2-yn-1-yl)-1H-benzo[d]imidazole-1-carboxamide] | < 200 | 22 (≈ 59.2 µM) |
| CC(C)C#CCNC(=O)n1cnc2c(N3CCN(CCC(F)(F)F)CC3)cccc21 [Example 310, N-(4-Methylpent-2-yn-1-yl)-4-(4-(3,3,3-trifluoropropyl)piperazin-1-yl)-1H-benzo[d]imidazole-1-carboxamide] | < 200 | 4 (≈ 9.49 µM) |
| CC(C)C#CCNC(=O)n1cnc2c(N3CCC4(CCCN4C)CC3)cccc21 [Example 311, 4-(1-Methyl-1,8-diazaspiro[4.5]decan-8-yl)-N-(4-methylpent-2-yn-1-yl)-1H-benzo[d]imidazole-1-carboxamide] | < 200 | 31 (≈ 78.8 µM) |
